Experimental data from patent US5874442A, “Tricyclic amides useful for inhibition of G-protein function and for treatment of proliferative disease” (Schering-Plough Corporation, priority 1996, dated 1999).

How the values were obtained:
[1] = test system: DLD-1-BAG human colon carcinoma cells; assay: Cell mat assay, DLD-1-BAG tumor cells; type: cell-based; details: Homo sapiens, DLD-1, 336 h, read-out: Tumor (DLD-1) IC50
Method: (§1) Compound-induced colony inhibition was assayed by addition of serial dilutions of compound directly to the growth medium 24 h after tumor cell planting, and incubating cells for an additional 14 d to allow colony formation. Assays were terminated by rinsing monolayers twice with phosphate-buffered saline (PBS), fixing the monolayers with a 1% glutaraldehyde solution in PBS, then visualizing tumor cells by staining with X-Gal (Price, J., et al., Lineage analysis in the vertebrate nervous system by retrovirus-mediated gene transfer, Proc. Natl. Acad. Sci.84, 156-160(1987)). […] Both IC50 values were obtained by determining the density of tumor cells and mat cells by visual inspection and enumeration of cells per colony and the number of colonies under the microscope.
Additional assays were carried out by following essentially the same procedure as described above, but with substitution of alternative indicator tumor cell lines in place of the T24-BAG cells. The assays were conducted using either DLD-1-BAG human colon carcinoma cells expressing as activated K-ras gene or SW620-BAG human colon carcinoma cells expressing an activated K-ras gene.

[2] = test system: Ras-CVLS processing in COS cells; assay: Cell-based COS cell assay: inhibition of Ras processing (Ras-CVLS); design: species or system monkey; details: Primates, COS, read-out: Inhibition of Ras Processing IC50, Table 3, COS cells
Text: Transient expression of val^12 -Ha-Ras-CVLS and […] -Ha-Ras-CVLL in COS monkey kidney cells: Effect of farnesyl protein transferase inhibitors on Ras processing and on disordered cell growth induced by transforming Ras.
COS monkey kidney cells were transfected by electroporation with the plasmid pSV-SPORT (Gibco/BRL) containing a cDNA insert encoding either Ras-CVLS or Ras-CVLL, leading to transient overexpression of a Ras substrate for either farnesyl protein transferase or geranylgeranyl protein transferase I, respectively (see above).
Following electroporation, cells were plated into 6-well tissue culture dishes containing 1.5 ml of Dulbecco's-modified Eagle's media (GIBCO, Inc.) supplemented with 10% fetal calf serum and the appropriate farnesyl protein transferase inhibitors. After 24 hours, media was removed and fresh media containing the appropriate drugs was re-added.
48 hours after electroporation cells were examined under the microscope to monitor disordered cell growth induced by transforming Ras. Cells expressing transforming Ras become more rounded and refractile and overgrow the monolayer, reminiscent of the transformed phenotype. Cells were then photographed, washed twice with 1 ml of cold phosphate-buffered saline (PBS) and removed from the dish by scraping with a rubber policeman into 1 ml of a buffer containing 25 mM Tris, pH 8.0; 1 mM ethylenediamine tetraacetic acid; 1 mM phenylmethylsulfonyl fluoride; […]; and 0.1 mM pepstatin. Cells were lysed by homogenization and cell debris was removed by centrifugation at 2000× g for 10 min.
Cellular protein was precipitated by addition of ice-cold trichloroacetic acid and redissolved in […] of SDS-electrophoresis sample buffer. […] Proteins resolved on the gels were electroblotted onto nitrocellulose membranes for immunodetection.
After washing, membranes were incubated for one hour at room temperature with a 1:5000 dilution of secondary antibody, rabbit anti-rat lgG conjugated to horseradish peroxidase, in PBS containing 1% fetal calf serum. The presence of processed and unprocessed Ras-CVLS or Ras-CVLL was detected using a colorimetric peroxidase reagent (4-chloro-1-naphthol) as described by the manufacturer (Bio-Rad).

[3] = test system: Normal human HEPM fibroblasts; assay: Cell mat assay, normal cells (cell mat); type: cell-based; details: Homo sapiens, Fibroblast, 336 h, read-out: Normal IC50
Method: as §1

HTB 177 = assay: Soft agar assay; type: cell-based; details: Homo sapiens; HTB 177 (NSCLC) K ras mutation; read-out: IC50, inhibition of human tumor cell growth, soft agar
Method: (§2) Anchorage-independent growth is a characteristic of tumorigenic cell lines. Human tumor cells are suspended in growth medium containing 0.3% agarose and an indicated concentration of a farnesyl transferase inhibitor. The solution is overlayed onto growth medium solidified with 0.6% agarose containing the same concentration of farnesyl transferase inhibitor as the top layer. […] After incubation, the colonies are stained by overlaying the agar with a solution of MTT (3-[4,5-dimethylthiazol-2-yl]-2,5-diphenyltetrazolium bromide, Thiazolyl blue) (1 mg/mL in PBS). Colonies are counted and the IC50's determined.

A549 = assay: Soft agar assay; type: cell-based; details: Homo sapiens; A549 (lung) K ras mutation; read-out: IC50, inhibition of human tumor cell growth, soft agar
Method: as §2

HTB 175 = assay: Soft agar assay; type: cell-based; details: Homo sapiens; HTB 175 (SCLC) ras mut. not detected; read-out: IC50, inhibition of human tumor cell growth, soft agar
Method: as §2

[4] = test system: T24-BAG4 human bladder carcinoma cells expressing an activated H-ras gene; assay: Cell mat assay, T24-BAG4 tumor cells; type: cell-based; details: Homo sapiens, 336 h, read-out: Tumor (T-24) IC50
Method: as §1

Compound: NC(=O)N1CCC(CC(=O)N2CCC([C@H]3c4ncc(Br)cc4CCc4cc(Cl)cc(Br)c43)CC2)CC1 [Example 10]
- IC50 [1]: < 1600 nM
- IC50 [2]: < 25 nM
- IC50 [3]: > 25 µM
- IC50 (HTB 177): 40 nM
- IC50 (A549): 150 nM
- IC50 (HTB 175): 250 nM
- IC50 [4]: < 1600 nM
